Measurements: US20190144942A1, “METHODS FOR IDENTIFYING AND MODULATING IMMUNE PHENOTYPES” (priority 2016, published 2019)
Entries after “also recorded” stand apart in the source; their conditions may differ. Like-named read-outs stand apart in the source and are kept apart here.

Key:
Assay type in all cases: cell-based, human
[1] = system: cluster 1-like/CD64^Hi,PD-L1^Hi cDCs; test: Acquisition of the CD64Hi,PD-L1Hi cDC phenotype in elite controller cells exposed to virus with inhibitory drugs (flow cytometry)
[2] = system: cluster 1-like/CD64^Hi,PD-L1^Hi cDCs
[3] = system: cluster 1-like/CD64^Hi,PD-L1^Hi cDCs; test: Induction of CD64Hi,PD-L1Hi cDCs in PBMCs incubated with TLR3 agonist and nanoparticle-encapsulated HIV-1 Gag DNA, without live virus; conditions: PBMCs from healthy (HIV-negative) individuals; 2 μg/ml Poly I:C and/or polymer nanoparticles loaded with 100 nucleotide HIV-1 Gag DNA; no live virus
Experimental: PBMC or isolated cDCs were stained with LIVE/DEAD cell blue viability dye (Invitrogen, Carlsbad, Calif.) and monoclonal antibodies directed against CD11c (Biolegend), CD14 (BD), HLA-DR, CD64, PDL-1, ICAM1, CD16, SLAMF8 (Biolegend) and subsequently analyzed on a Fortessa cytometer (BD Biosciences, San Jose, Calif.). For intracellular cytokine staining, cells were treated with a commercial fixation/permeabilization kit (BioLegend) according to the manufacturer's protocol. Data were analyzed with FlowJo software (Tree Star). cDCs were identified from bulk PBMCs as a population of viable CD14^− lymphocytes expressing high levels of CD11c and HLA-DR.
Finally, Applicants explored how Applicants might further exploit this TBK1-dependent innate immune sensing pathway to boost the fraction of cDCs acquiring the cluster 1 phenotype without exposure to live virus. For this purpose, Applicants incubated PBMCs from healthy individuals or ECs simultaneously with a TLR3 agonist (Poly(I:C)) and single- or double-stranded HIV-1 Gag DNA (ssDNA or dsDNA, respectively) encapsulated in polymeric nanoparticles. […]

Compound: O=C(N[C@H](Cc1ccccc1)C(=O)O)c1sc2cc(F)ccc2c1Cl [TLR3 inhibitor]
- acquisition of the cluster 1/CD64^Hi,PD-L1^Hi cDC phenotype ([1]; elite controllers (ECs), virus plus TLR3 or TLR4 antagonist vs DMSO, p=0.0^2, Wilcoxon matched-pairs signed-rank test): modest, but significant, effect

Compound: Poly(I:C)
- proportion of CD64^Hi PDL1^Hi cells among cDCs [2]: significantly induce
- proportion of cluster 1-like/CD64^Hi,PD-L1^Hi cDCs ([2]; 24 hours): significantly induce; also recorded: induced a larger population; also recorded: significant increase
- proportion of cluster 1-like/CD64^Hi,PD-L1^Hi cDCs [3]: insufficient

Compound: O=C(NCCCNc1nc(Nc2cccc(NC(=O)N3CCCC3)c2)ncc1I)c1cccs1 [BX795]
- induction of the cluster 1-like/CD64^Hi,PD-L1^Hi population ([1]; EC PBMCs, 1 μM BX795 added at the time of viral addition, p=0.0020, Wilcoxon signed-rank test): dramatic and significant abrogation
